Reference: patent US20240174618A1, “SUBSTITUTED (2-HETEROARYLOXYPHENYL)SULFONATES, SALTS THEREOF AND THEIR USE AS HERBICIDAL AGENTS” (Bayer Aktiengesellschaft, priority 2021, published 2024)

Key:
Type in all cases: in vivo
[1] = test system: Abutilon theophrasti (ABUTH); assay: A. Herbicidal pre-emergence efficacy, ABUTH; conditions: scored visually after about 3 weeks vs untreated controls
Procedure, shortened: (§1)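 Pre-emergence soil-surface spray in sandy loam pots, WP/EC in water plus 0.5% additive, 600 L/ha. Visual % damage rating after about 3 weeks in greenhouse vs. untreated; 0% = control-like, 100% = dead plants. Rates up to 1280 g/ha.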

Kochia scoparia (KCHSC) = assay: A. Herbicidal pre-emergence efficacy, KCHSC
Procedure, shortened: as §1

[2] = test system: Amaranthus retroflexus (AMARE); assay: A. Herbicidal pre-emergence efficacy, AMARE
Procedure, shortened: as §1

Poa annua (POAAN) = assay: B. Herbicidal post-emergence efficacy, POAAN
Procedure, shortened: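 Visual percent efficacy relative to untreated controls (0% unaffected, 100% dead), scored roughly 3 weeks after foliar spraying of one-leaf-stage pot-grown plants with WP or EC preparations at application rates up to 1280 g/ha in 600 L/ha water containing 0.5% additive.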

[3] = test system: Amaranthus retroflexus (AMARE); assay: C. Herbicidal pre-emergence efficacy, AMARE; conditions: scored after about 3 weeks
Procedure, shortened: (§2)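 Pre-emergence test: formulated compounds sprayed as aqueous suspension or emulsion with 0.5% additive at 600 l/ha onto soil covering sown seeds, at rates corresponding to 320 g/ha or less. After about 3 weeks in greenhouse, efficacy scored visually as percent versus untreated controls (100% = plants dead).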

Lolium rigidum (LOLRI) = assay: C. Herbicidal pre-emergence efficacy, LOLRI; conditions: scored after about 3 weeks
Procedure, shortened: as §2

Veronica persica (VERPE) = assay: C. Herbicidal pre-emergence efficacy, VERPE; conditions: scored after about 3 weeks
Procedure, shortened: as §2

Viola tricolor (VIOTR) = assay: C. Herbicidal pre-emergence efficacy, VIOTR
Procedure, shortened: as §2

[4] = 80 g/ha, scored visually after about 3 weeks vs untreated controls
[5] = pre-emergence, dosage 1280 g/ha

SMILES	Pre-emergence efficacy against ABUTH ([1]; 80 g/ha) [%]	Pre-emergence efficacy against ABUTH ([1]; 320 g/ha) [%]	Pre-emergence efficacy against ABUTH ([1]; 1280 g/ha) [%]	Pre-emergence efficacy against KCHSC (Kochia scoparia (KCHSC); [4]) [%]	Pre-emergence efficacy against KCHSC (Kochia scoparia (KCHSC); pre-emergence, dosage 320 g/ha) [%]	Pre-emergence efficacy against KCHSC (Kochia scoparia (KCHSC); [5]) [%]	Pre-emergence efficacy against AMARE in % ([2]; 80 g/ha) [%]	Pre-emergence efficacy against AMARE in % ([2]; 320 g/ha) [%]	Pre-emergence efficacy against AMARE in % ([2]; 1280 g/ha) [%]	Post-emergence efficacy against POAAN (Poa annua (POAAN); 320 g/ha) [%]	Post-emergence efficacy against POAAN (Poa annua (POAAN); 1280 g/ha) [%]	Pre-emergence efficacy against AMARE ([3]; 80 g/ha) [%]	Pre-emergence efficacy against AMARE ([3]; 320 g/ha) [%]	Pre-emergence efficacy against LOLRI (Lolium rigidum (LOLRI); 320 g/ha) [%]	Pre-emergence efficacy against VERPE (Veronica persica (VERPE); 80 g/ha) [%]	Pre-emergence efficacy against VERPE (Veronica persica (VERPE); 320 g/ha) [%]	Pre-emergence efficacy against VIOTR in % (Viola tricolor (VIOTR); application rate 80 g/ha) [%]	Pre-emergence efficacy against VIOTR in % (Viola tricolor (VIOTR); application rate 320 g/ha) [%]	Pre-emergence efficacy against LOLRI (Lolium rigidum (LOLRI); 80 g/ha) [%]	Post-emergence efficacy against POAAN (Poa annua (POAAN); 80 g/ha) [%]
O=S(=O)(CCCCl)Oc1ccccc1Oc1ncc(F)cn1 [Example I-5]	100	100	100	100	100	100	100	100	100	90	100	100	100	80	100	100	100	100	–	–
CCCCS(=O)(=O)Oc1ccccc1Oc1ncc(Cl)cn1 [Example I-6]	100	100	100	90	90	100	100	100	100	–	100	100	100	100	80	90	80	90	80	–
CC(C)CS(=O)(=O)Oc1ccccc1Oc1ncc(Cl)cn1 [Example I-7, [2-(5-Chloropyrimidin-2-yl)oxyphenyl] 2-methylpropane-1-sulfonate]	–	90	100	90	100	100	100	100	100	–	90	100	100	90	90	100	80	100	–	–
O=S(=O)(CCC(F)(F)F)Oc1ccccc1Oc1ncc(Cl)cn1 [Example I-8]	90	90	100	100	100	100	90	90	100	–	90	100	100	100	100	100	90	90	–	–
O=S(=O)(CCCC(F)(F)F)Oc1ccccc1Oc1ncc(Cl)cn1 [Example I-10]	100	100	100	100	100	100	100	100	100	–	90	100	100	100	100	100	90	100	90	–
O=S(=O)(CCCCl)Oc1c(F)cccc1Oc1ncc(Cl)cn1 [Example I-14]	100	100	100	100	100	100	100	100	100	100	100	100	100	100	100	100	100	100	–	90
